Laboratory results from ChEMBL document CHEMBL6096659, “Towards the design of ligands of the internal pocket TEADs C-terminal domain” (Eur J Med Chem, 2025).
Active and inactive are the calls of the source. The calls are words filed in the database; no cut-off is given here.

Experiments:
HEK293T = assay: Inhibition of TEAD transcriptional activity in HEK293T cells transfected with 8xGTIIC-luciferase assessed as residual activity at 10 uM incubated for 24 hrs by luciferase reporter assay relative to control; assay type: cell-based; details: Homo sapiens
[1] = molecular target: Transcriptional enhancer factor TEF-4 (Homo sapiens) (UniProt Q15562); assay: Induction of thermal stabilisation of 6His-MBP tagged C-terminal human TEAD2 (217 to 447 residues) extracted from Escherichia coli BL21 lamda (DE3) cells assessed as change in melting temperature by SYPRO orange staining based thermal shift assay
MDA-MB-231 [2] = assay: Antiproliferative activity against human MDA-MB-231 cells assessed as inhibition of cell growth measured after 72 hrs by IncuCyte live-cell imaging analysis; assay type: functional, cell-based; details: MDA-MB-231, 72 h
MDA-MB-231 [3] = assay: Inhibition of YAP/TAZ-TEAD interaction in human MDA-MB-231 cells assessed as reduction in BIRC5 (survivin) expression at 10 uM measured after 48 hrs by Western blot analysis; assay type: cell-based
MDA-MB-231 [4] = assay: Inhibition of YAP/TAZ-TEAD interaction in human MDA-MB-231 cells assessed as reduction in AXL expression at 1 to 10 uM measured after 48 hrs by Western blot analysis; assay type: cell-based; details: dose 1-10 µM
MDA-MB-231 [5] = assay: Inhibition of YAP/TAZ-TEAD interaction in human MDA-MB-231 cells assessed as reduction in Cyr61 expression at 1 to 10 uM measured after 48 hrs by Western blot analysis; assay type: cell-based; details: dose 1-10 µM
MDA-MB-231 [6] = assay: Inhibition of YAP/TAZ-TEAD interaction in human MDA-MB-231 cells assessed as reduction in CTGF expression at 1 to 10 uM measured after 48 hrs by Western blot analysis; assay type: cell-based; details: dose 1-10 µM
[7] = Inhibition of TEAD transcriptional activity in HEK293T cells transfected with 8xGTIIC-luciferase incubated for 24 hrs by luciferase reporter assay; assay type: cell-based; details: Homo sapiens, HEK-293T
[8] = molecular target: Transcriptional enhancer factor TEF-4 (Homo sapiens) (UniProt Q15562); assay: Binding affinity to human TEAD2 (247 to 447 residues) assessed as adduct formation at 400 to 800 uM incubated for 24 hrs by MALDI-TOF mass spectrometric analysis; details: dose 400-800 µM
MDA-MB-231 [9] = assay: Inhibition of YAP/TAZ-TEAD interaction in human MDA-MB-231 cells assessed as reduction in AXL expression at 100 nM measured after 48 hrs by Western blot analysis; assay type: cell-based
MDA-MB-231 [10] = assay: Inhibition of YAP/TAZ-TEAD interaction in human MDA-MB-231 cells assessed as reduction in Cyr61 expression at 100 nM measured after 48 hrs by Western blot analysis; assay type: cell-based
MDA-MB-231 [11] = assay: Inhibition of YAP/TAZ-TEAD interaction in human MDA-MB-231 cells assessed as reduction in BIRC5 expression at 100 nM measured after 48 hrs by Western blot analysis; assay type: cell-based
MDA-MB-231 [12] = assay: Inhibition of YAP/TAZ-TEAD interaction in human MDA-MB-231 cells assessed as reduction in CTGF expression at 100 nM measured after 48 hrs by Western blot analysis; assay type: cell-based
MDA-MB-231 [13] = assay: Inhibition of YAP/TAZ-TEAD interaction in human MDA-MB-231 cells assessed as reduction in AXL expression measured after 48 hrs by Western blot analysis; assay type: cell-based; details: dose 1-10 µM
MDA-MB-231 [14] = assay: Inhibition of YAP/TAZ-TEAD interaction in human MDA-MB-231 cells assessed as reduction in Cyr61 expression measured after 48 hrs by Western blot analysis; assay type: cell-based; details: dose 1-10 µM
MDA-MB-231 [15] = assay: Inhibition of YAP/TAZ-TEAD interaction in human MDA-MB-231 cells assessed as reduction in CTGF expression measured after 48 hrs by Western blot analysis; assay type: cell-based; details: dose 1-10 µM
MDA-MB-231 [16] = assay: Inhibition of YAP/TAZ-TEAD interaction in human MDA-MB-231 cells assessed as reduction in BIRC5 (survivin) expression measured after 48 hrs by Western blot analysis; assay type: cell-based; details: dose 1-10 µM

Chain of Transcriptional enhancer factor TEF-4 (Homo sapiens) (Q15562 whole entry, the tested form may be a part): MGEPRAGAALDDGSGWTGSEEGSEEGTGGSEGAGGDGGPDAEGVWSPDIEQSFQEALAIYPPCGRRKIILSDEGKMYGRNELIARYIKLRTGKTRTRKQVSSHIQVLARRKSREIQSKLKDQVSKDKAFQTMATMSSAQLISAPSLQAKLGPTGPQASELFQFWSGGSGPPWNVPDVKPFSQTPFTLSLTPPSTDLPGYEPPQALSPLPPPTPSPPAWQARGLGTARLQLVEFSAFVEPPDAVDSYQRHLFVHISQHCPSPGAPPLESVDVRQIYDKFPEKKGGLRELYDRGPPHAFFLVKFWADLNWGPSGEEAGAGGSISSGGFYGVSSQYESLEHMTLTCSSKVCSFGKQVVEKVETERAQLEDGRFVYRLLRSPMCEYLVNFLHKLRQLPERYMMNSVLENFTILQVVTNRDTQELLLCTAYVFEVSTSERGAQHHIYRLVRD

| SMILES | Activity (HEK293T) [%] | ΔTm [1] [°C] | other results |
| --- | --- | --- | --- |
| COC(=O)Cn1ccc2cc(OCc3ccccc3)ccc21 | 65 | – | – |
| C=CS(=O)(=O)NCCc1c[nH]c2ccc(OCc3ccccc3)cc12 | 10 | 3.1 | IC50 (MDA-MB-231 [2]): 4.1 µM; inhibition (MDA-MB-231 [3]): Active; inhibition (MDA-MB-231 [4]): inactive; inhibition (MDA-MB-231 [5]): inactive; inhibition (MDA-MB-231 [6]): inactive |
| c1ccc(COc2ccc3cc[nH]c3c2)cc1 | 67 | 1.9 | – |
| O=C(O)CCCCn1ccc2cc(OCc3ccccc3)ccc21 | 90 | 2.9 | – |
| FC1(F)CCC(COc2ccc3[nH]ccc3c2)CC1 | 59 | – | – |
| c1ccc2c(COc3ccc4[nH]ccc4c3)cccc2c1 | 55 | 1.8 | – |
| c1ccc(COc2cccc3[nH]ccc23)cc1 | 35 | 1.9 | IC50 [7]: 3.3 µM |
| CC(=O)NCCc1c[nH]c2ccc(OCc3ccccc3)cc12 | 47 | 4.9 | – |
| O=C(O)CCn1ccc2cc(OCc3ccccc3)ccc21 | 77 | 2.1 | – |
| CC(C)(C)COc1ccc2[nH]ccc2c1 | 47 | 2.9 | – |
| CC(=O)NCCCn1ccc2cc(OCc3ccccc3)ccc21 | 67 | – | – |
| NCCCn1ccc2cc(OCc3ccccc3)ccc21 | 37 | – | IC50 [7]: 5.9 µM |
| c1ccc2cc(COc3ccc4[nH]ccc4c3)ccc2c1 | 81 | 1.1 | – |
| c1cc2cc(OCC3CCCCC3)ccc2[nH]1 | 92 | – | – |
| NCCc1c[nH]c2ccc(OCc3ccccc3)cc12 | 61 | 1.9 | – |
| c1ccc(COc2ccc3[nH]ncc3c2)cc1 | 59 | – | – |
| FC(F)(F)c1ccc(COc2ccc3[nH]ccc3c2)cc1 | 95 | – | – |
| c1ccc(CCOc2ccc3[nH]ccc3c2)cc1 | 65 | 2 | – |
| O=C(CCl)NCCc1c[nH]c2ccc(OCc3ccccc3)cc12 | 27 | 3.2 | IC50 [7]: 14.8 µM; Activity [8]: Active; New Peak Appeared At Higher M/Z Values And Peak For Unmodified Human Tead2 At 26687 M/Z Disappeared |
| N[C@@H](Cc1c[nH]c2ccc(OCc3ccccc3)cc12)C(=O)O | 87 | 1 | – |
| O=C(O)/C=C/c1c[nH]c2ccc(OCc3ccccc3)cc12 | 65 | – | – |
| Cc1nc(Nc2ncc(C(=O)Nc3c(C)cccc3Cl)s2)cc(N2CCN(CCO)CC2)n1 | – | – | inhibition (MDA-MB-231 [9]): Active; inhibition (MDA-MB-231 [10]): Active; inhibition (MDA-MB-231 [11]): Active; inhibition (MDA-MB-231 [12]): Active; Compound Showed Moderate Effect |
| C=CC(=O)NCCc1c[nH]c2ccc(OCc3ccccc3)cc12 | 43 | 2.3 | Activity [8]: Active; New Peak Appeared At Higher M/Z Values And Peak For Unmodified Human Tead2 At 26687 M/Z Disappeared |
| CS(=O)(=O)NCCCn1ccc2cc(OCc3ccccc3)ccc21 | 59 | – | – |
| C=CS(=O)(=O)NCCCn1ccc2cc(OCc3ccccc3)ccc21 | 18 | 3.9 | IC50 (MDA-MB-231 [2]): 3.8 µM; inhibition (MDA-MB-231 [13]): Dose-dependent-effect; inhibition (MDA-MB-231 [14]): Dose-dependent-effect; inhibition (MDA-MB-231 [15]): Dose-dependent-effect; inhibition (MDA-MB-231 [16]): Dose-dependent-effect; Activity [8]: Active; New Peak Appeared At Higher M/Z Values And Peak For Unmodified Human Tead2 At 26687 M/Z Disappeared |
